Reference: patent publication US20260207578A1, “COMPOUND BASED ON SULFUR/OXYGEN SUBSTITUTED GLUTARIMIDE-BASED ISOINDOLINONE SKELETON AND USE THEREOF” (Gluetacs Therapeutics (Shanghai) Co., LTD., priority 2022, published 2026)

What was measured:
[1] = target: T1, human Cereblon WT GST-tagged protein (Homo sapiens, UniProt Q96SW2); assay: CRBN-binding affinity, HTRF (CEREBLON BINDING kit); conditions: displacement of Thalidomide-Re reagent, 3 hours at room temperature
T1 construct: purchased CISBIO 64BDCRBNPEH
T1 sequence (Q96SW2 whole entry): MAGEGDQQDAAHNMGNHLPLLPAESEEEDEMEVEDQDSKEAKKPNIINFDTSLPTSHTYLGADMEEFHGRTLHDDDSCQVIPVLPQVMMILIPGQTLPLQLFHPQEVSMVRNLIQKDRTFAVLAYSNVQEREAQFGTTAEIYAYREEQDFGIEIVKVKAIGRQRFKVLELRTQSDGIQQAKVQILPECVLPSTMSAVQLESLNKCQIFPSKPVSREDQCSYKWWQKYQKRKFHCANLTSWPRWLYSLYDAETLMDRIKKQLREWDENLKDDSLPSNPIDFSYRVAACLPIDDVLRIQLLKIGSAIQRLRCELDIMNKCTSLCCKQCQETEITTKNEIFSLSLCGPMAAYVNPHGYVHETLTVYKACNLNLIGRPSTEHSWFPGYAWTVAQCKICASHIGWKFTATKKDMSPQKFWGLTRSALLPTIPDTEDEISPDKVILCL
In short: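 HTRF competition format: compound, GST-tagged wild-type human Cereblon, Thalidomide-Re tracer and GST Eu antibody were combined in PROTAC binding buffer. Binding was derived from emission at 620 nm relative to blank and solvent control wells.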

IKZF1 = target: T2, IKZF1 (Homo sapiens, UniProt Q13422+Q96SW2); assay: Western-blot assay, substrate protein in hPBMCs; format: cell-based; conditions: hPBMC cells, 24 hours, tested at 50 nM and 500 nM, table does not say which
T2 construct: endogenous in cells; host or cells: human PBMCs (Milecell Biotechnologies)
T2 sequence (Q13422 whole entry): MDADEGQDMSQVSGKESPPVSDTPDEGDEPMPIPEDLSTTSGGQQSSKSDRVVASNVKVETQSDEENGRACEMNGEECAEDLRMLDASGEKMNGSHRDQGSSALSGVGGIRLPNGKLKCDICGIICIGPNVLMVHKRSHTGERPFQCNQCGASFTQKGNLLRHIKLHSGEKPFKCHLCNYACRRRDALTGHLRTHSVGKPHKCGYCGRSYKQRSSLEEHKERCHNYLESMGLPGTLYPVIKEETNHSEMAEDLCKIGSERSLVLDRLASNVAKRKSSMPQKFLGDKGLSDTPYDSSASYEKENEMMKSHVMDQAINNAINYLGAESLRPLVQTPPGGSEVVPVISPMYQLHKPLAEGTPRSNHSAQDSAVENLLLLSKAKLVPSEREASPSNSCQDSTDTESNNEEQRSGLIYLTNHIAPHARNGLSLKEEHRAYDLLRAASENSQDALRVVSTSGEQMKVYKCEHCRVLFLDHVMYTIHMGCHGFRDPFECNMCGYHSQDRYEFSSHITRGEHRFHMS
T2 sequence (Q96SW2 whole entry): as the sequence (Q96SW2 whole entry) above
T2 sequence (Q16531 whole entry partner): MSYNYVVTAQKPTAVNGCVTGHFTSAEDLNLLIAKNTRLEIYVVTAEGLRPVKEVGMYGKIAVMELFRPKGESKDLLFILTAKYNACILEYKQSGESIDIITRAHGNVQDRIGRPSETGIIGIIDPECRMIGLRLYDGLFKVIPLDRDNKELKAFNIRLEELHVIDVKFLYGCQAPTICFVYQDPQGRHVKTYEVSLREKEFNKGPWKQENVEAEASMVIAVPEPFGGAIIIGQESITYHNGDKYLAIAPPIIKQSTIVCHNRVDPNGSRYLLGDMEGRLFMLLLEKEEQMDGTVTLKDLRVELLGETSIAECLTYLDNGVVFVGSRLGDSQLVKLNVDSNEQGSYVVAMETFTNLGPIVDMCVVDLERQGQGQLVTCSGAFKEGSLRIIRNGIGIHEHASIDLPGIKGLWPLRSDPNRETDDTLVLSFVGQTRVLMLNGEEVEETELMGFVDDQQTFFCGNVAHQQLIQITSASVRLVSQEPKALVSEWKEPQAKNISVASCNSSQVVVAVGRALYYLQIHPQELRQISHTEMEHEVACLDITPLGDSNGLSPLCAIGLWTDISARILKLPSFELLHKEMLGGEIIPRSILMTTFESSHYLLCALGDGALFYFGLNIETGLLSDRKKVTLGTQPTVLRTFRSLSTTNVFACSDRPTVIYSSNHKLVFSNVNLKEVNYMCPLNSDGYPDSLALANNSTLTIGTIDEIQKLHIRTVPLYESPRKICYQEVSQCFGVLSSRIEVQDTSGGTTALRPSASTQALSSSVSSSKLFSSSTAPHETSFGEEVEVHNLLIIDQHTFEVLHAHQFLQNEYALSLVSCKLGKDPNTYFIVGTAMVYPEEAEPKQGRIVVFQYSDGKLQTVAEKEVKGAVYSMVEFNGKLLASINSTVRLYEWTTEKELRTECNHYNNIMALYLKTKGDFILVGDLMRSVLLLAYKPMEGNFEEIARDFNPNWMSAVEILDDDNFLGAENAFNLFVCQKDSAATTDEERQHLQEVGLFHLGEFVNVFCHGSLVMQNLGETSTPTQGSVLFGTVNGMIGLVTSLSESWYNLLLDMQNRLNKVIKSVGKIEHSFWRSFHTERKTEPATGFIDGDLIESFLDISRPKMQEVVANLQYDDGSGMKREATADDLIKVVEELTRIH
Description: The effect of the compounds of the present disclosure on the expression of target proteins in cells was detected using conventional Western blot analysis.
Human peripheral blood mononuclear cells (hPBMCs) at a density of 1×10^6 cells/mL were thawed according to the PBMC Recovery Protocol (Milecell Biotechnologies Inc, Shanghai). The cells were then treated with the compounds of the present disclosure (including the compounds listed in Tables 1 and 2, and the Examples A1-A20 and 1-116 compounds) at concentrations of 50 nM and 500 nM.
Controls included a negative control (DMSO) and a positive control (the commercial immunomodulatory drug lenalidomide), both processed following the identical experimental protocol as the compounds of the present disclosure. After 24 hours of compounds treatment, cells were harvested and lysed in RIPA protein lysate containing phosphatase inhibitors on ice for 30-60 min, followed by centrifugation. The supernatant was aspirated as the extracted total cell protein. The protein concentration of the supernatant was determined using the conventional BCA (Bicinchoninic Acid) assay. The supernatant was then mixed with 4× SDS sample loading buffer, denatured at 95° C. for 5 minutes, and then subjected to SDS-PAGE electrophoresis on a polyacrylamide gel. Proteins were then transferred to a nitrocellulose (NC) membrane, blocked at room temperature for 1-2 h, and processed for antibody incubation and detection according to the manufacturer's instructions (Cell Signaling Technology).
Half-Maximal Degradation Concentration value (the drug concentration required for degrading proteins by 50%, abbreviated as DC50) reads method: comparing the grayscale values of Western blot bands from drug-treated samples with those from blank DMSO-treated controls, and identifying the drug concentration range at which the grayscale value is half that of the DMSO-treated control bands.
DC50 values can be calculated using ImageJ software to measure grayscale values of Western blot bands from drug-treated samples. The concentration-response curve is fitted to estimate the drug concentration corresponding to half the grayscale value.
Target protein remaining (%) refers to the percentage of target protein remaining in hPBMC cells after treatment with protein degrader compounds.
Calculation method for protein remaining (%): Use ImageJ software to measure grayscale values of Western blot bands from drug (protein degrader)-treated samples. The grayscale value of drug-treated bands is divided by that of internal control protein bands, and the resulting quotient is normalized to obtain the relative percentage of remaining target protein after protein degrader treatment.
Target protein degradation rate (%)=100%−target protein remaining (%).

CK1α = target: T3, CK1α (Homo sapiens, UniProt P48729+Q96SW2); assay: Western-blot assay, substrate protein in hPBMCs; format: cell-based; conditions: hPBMC cells, 24 hours, tested at 50 nM and 500 nM, table does not say which
T3 construct: endogenous in cells; host or cells: human PBMCs (Milecell Biotechnologies)
T3 sequence (P48729 whole entry): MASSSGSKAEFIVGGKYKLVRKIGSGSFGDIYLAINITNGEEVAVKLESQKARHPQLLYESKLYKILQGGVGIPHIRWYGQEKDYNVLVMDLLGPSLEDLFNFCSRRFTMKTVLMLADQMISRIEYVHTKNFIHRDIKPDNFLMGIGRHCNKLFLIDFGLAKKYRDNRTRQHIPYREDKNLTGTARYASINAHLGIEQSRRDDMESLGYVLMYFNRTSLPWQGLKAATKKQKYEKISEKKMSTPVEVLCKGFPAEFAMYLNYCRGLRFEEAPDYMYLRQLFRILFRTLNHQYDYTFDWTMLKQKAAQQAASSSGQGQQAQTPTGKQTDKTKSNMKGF
T3 sequence (Q96SW2 whole entry): as the sequence (Q96SW2 whole entry) above
T3 sequence (Q16531 whole entry partner): as the sequence (Q16531 whole entry partner) above
In short: (§1)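 Protein levels read by Western blot of lysates from human PBMCs (1×10^6 cells/mL) treated 24 h. Percent remaining is target band over loading-control band, normalised to DMSO-treated cells; DC50 is the concentration halving DMSO-control band intensity, estimated by curve fit.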

GSPT1 = target: T4, GSPT1 (Homo sapiens, UniProt P15170+Q96SW2); assay: Western-blot assay, substrate protein in hPBMCs; format: cell-based; conditions: hPBMC cells, 24 hours, tested at 50 nM and 500 nM, table does not say which
T4 construct: endogenous in cells; host or cells: human PBMCs (Milecell Biotechnologies)
T4 sequence (P15170 whole entry): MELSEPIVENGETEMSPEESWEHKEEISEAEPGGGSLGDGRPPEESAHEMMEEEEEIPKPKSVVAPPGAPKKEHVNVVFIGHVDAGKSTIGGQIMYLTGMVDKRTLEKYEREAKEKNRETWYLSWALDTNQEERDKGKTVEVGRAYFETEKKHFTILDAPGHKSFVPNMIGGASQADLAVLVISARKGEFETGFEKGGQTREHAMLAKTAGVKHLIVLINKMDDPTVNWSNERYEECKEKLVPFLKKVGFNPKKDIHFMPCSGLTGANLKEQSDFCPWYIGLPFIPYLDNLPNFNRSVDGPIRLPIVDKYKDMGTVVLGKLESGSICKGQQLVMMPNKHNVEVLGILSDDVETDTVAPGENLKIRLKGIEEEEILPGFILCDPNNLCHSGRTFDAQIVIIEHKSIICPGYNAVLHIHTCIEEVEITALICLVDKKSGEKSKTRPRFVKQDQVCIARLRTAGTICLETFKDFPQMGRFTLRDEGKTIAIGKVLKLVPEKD
T4 sequence (Q96SW2 whole entry): as the sequence (Q96SW2 whole entry) above
T4 sequence (Q16531 whole entry partner): as the sequence (Q16531 whole entry partner) above
In short: as §1

Wee1 = target: T5, Wee1 (Homo sapiens, UniProt P30291+Q96SW2); assay: Western-blot assay, substrate protein in hPBMCs; format: cell-based; conditions: hPBMC cells, 24 hours, tested at 50 nM and 500 nM, table does not say which
T5 construct: endogenous in cells; host or cells: human PBMCs (Milecell Biotechnologies)
T5 sequence (P30291 whole entry): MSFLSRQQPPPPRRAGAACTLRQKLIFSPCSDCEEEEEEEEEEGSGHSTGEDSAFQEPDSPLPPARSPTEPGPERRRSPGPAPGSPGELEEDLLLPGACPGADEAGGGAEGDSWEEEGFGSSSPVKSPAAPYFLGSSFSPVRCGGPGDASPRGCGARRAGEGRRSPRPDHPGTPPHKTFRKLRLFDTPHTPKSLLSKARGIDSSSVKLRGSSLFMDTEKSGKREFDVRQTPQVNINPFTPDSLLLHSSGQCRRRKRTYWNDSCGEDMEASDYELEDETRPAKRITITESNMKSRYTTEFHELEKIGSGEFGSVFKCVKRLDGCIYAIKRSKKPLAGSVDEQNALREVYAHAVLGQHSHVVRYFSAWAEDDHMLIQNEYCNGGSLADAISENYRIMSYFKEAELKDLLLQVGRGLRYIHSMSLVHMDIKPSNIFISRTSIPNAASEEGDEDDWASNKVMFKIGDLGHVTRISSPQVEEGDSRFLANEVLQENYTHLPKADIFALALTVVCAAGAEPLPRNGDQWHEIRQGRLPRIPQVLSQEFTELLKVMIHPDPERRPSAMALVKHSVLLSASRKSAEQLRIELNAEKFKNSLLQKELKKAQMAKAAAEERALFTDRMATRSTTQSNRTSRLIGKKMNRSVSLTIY
T5 sequence (Q96SW2 whole entry): as the sequence (Q96SW2 whole entry) above
T5 sequence (Q16531 whole entry partner): as the sequence (Q16531 whole entry partner) above
In short: as §1

IKZF2 = target: T6, IKZF2 (Homo sapiens, UniProt Q96SW2+Q9UKS7); assay: Western-blot assay, substrate protein in hPBMCs; format: cell-based; conditions: hPBMC cells, 24 hours, tested at 50 nM and 500 nM, table does not say which
T6 construct: endogenous in cells; host or cells: human PBMCs (Milecell Biotechnologies)
T6 sequence (Q9UKS7 whole entry): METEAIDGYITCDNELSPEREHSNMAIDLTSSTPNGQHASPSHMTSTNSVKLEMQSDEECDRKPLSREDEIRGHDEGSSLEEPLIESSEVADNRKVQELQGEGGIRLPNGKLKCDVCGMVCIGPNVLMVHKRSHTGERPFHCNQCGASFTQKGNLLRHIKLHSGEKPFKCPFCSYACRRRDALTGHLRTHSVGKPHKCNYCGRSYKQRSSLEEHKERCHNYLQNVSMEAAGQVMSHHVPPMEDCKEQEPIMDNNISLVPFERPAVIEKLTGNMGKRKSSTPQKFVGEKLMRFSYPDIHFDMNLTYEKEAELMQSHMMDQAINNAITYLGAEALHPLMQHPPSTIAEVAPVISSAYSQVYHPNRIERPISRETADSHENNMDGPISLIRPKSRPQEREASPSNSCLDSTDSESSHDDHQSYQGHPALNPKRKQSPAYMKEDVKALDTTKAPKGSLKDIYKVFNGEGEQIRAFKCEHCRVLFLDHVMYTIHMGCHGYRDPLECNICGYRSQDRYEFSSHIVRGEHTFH
T6 sequence (Q96SW2 whole entry): as the sequence (Q96SW2 whole entry) above
T6 sequence (Q16531 whole entry partner): as the sequence (Q16531 whole entry partner) above
In short: as §1

## O=C1CCC(N2Cc3cc(SC4CN(C(c5ccc(F)cc5)c5ccc(F)cc5)C4)ccc3C2=O)C(=O)N1 (stereo not drawn) [GT-06503, 3-(5-((1-(bis(4-fluorophenyl)methyl)azetidin-3-yl)thio)-1-oxoisoindolin-2-yl)piperidine-2,6-dione]
[1]
  IC50: 500 to 1000 nM
IKZF1
  substrate protein remaining %: A (0%≤ substrate protein remaining % ≤80%)
CK1α
  substrate protein remaining %: A (0%≤ substrate protein remaining % ≤80%)
GSPT1
  substrate protein remaining %: A (0%≤ substrate protein remaining % ≤80%)
Wee1
  substrate protein remaining %: A (0%≤ substrate protein remaining % ≤80%)

## O=C1CCC(N2Cc3cc(OC4CN(C(c5cccc(F)c5)c5cccc(F)c5)C4)ccc3C2=O)C(=O)N1 (stereo not drawn) [GT-06352, 3-(5-((1-(bis(3-fluorophenyl)methyl)azetidin-3-yl)oxy)-1-oxoisoindolin-2-yl)piperidine-2,6-dione]
[1]
  IC50: 500 to 1000 nM
IKZF1
  substrate protein remaining %: A (0%≤ substrate protein remaining % ≤80%)
CK1α
  substrate protein remaining %: A (0%≤ substrate protein remaining % ≤80%)
GSPT1
  substrate protein remaining %: A (0%≤ substrate protein remaining % ≤80%)

## O=C1CCC(N2Cc3cc(SC4CCNCC4)ccc3C2=O)C(=O)N1 (stereo not drawn) [GT-03616, 3-(1-oxo-5-(piperidin-4-ylthio)isoindolin-2-yl)piperidine-2,6-dione]
[1]
  IC50: 1000 to 1900 nM
IKZF1
  substrate protein remaining %: A (0%≤ substrate protein remaining % ≤80%)
CK1α
  substrate protein remaining %: A (0%≤ substrate protein remaining % ≤80%)
GSPT1
  substrate protein remaining %: A (0%≤ substrate protein remaining % ≤80%)
IKZF2
  substrate protein remaining %: A (0%≤ substrate protein remaining % ≤80%)

## O=C1CCC(N2Cc3cc(SC4CN(Cc5ccc(-c6ccc(Cl)cc6)cc5)C4)ccc3C2=O)C(=O)N1 (stereo not drawn) [GT-06226, 3-(5-((1-((4′-chloro-[1,1′-biphenyl]-4-yl)methyl)azetidin-3-yl)thio)-1-oxoisoindolin-2-yl)piperidine-2,6-dione]
[1]
  IC50: 500 to 1000 nM
IKZF1
  substrate protein remaining %: A (0%≤ substrate protein remaining % ≤80%)
Wee1
  substrate protein remaining %: A (0%≤ substrate protein remaining % ≤80%)

## CC1(C)CCC(C(=O)N2CC(Sc3ccc4c(c3)CN(C3CCC(=O)NC3=O)C4=O)C2)=C(c2ccc(Cl)cc2)C1 (stereo not drawn) [GT-06137, 3-(5-((1-(4′-chloro-5,5-dimethyl-3,4,5,6-tetrahydro-[1,1′-biphenyl]-2-carbonyl)azetidin-3-yl)thio)-1-oxoisoindolin-2-yl)piperidine-2,6-dione]
[1]
  IC50: 500 to 1000 nM
IKZF1
  substrate protein remaining %: A (0%≤ substrate protein remaining % ≤80%)
GSPT1
  substrate protein remaining %: A (0%≤ substrate protein remaining % ≤80%)
Wee1
  substrate protein remaining %: A (0%≤ substrate protein remaining % ≤80%)

## CC1(C)CCC(CN2CC(Sc3cccc4c3C(=O)N(C3CCC(=O)NC3=O)C4)C2)=C(c2ccc(Cl)cc2)C1 (stereo not drawn) [GT-06812, 3-(7-((1-((4′-chloro-5,5-dimethyl-3,4,5,6-tetrahydro-[1,1′-biphenyl]-2-yl)methyl)azetidin-3-yl)thio)-1-oxoisoindolin-2-yl)piperidine-2,6-dione]
[1]
  IC50: 1000 to 1900 nM
IKZF1
  substrate protein remaining %: A (0%≤ substrate protein remaining % ≤80%)
GSPT1
  substrate protein remaining %: A (0%≤ substrate protein remaining % ≤80%)
Wee1
  substrate protein remaining %: A (0%≤ substrate protein remaining % ≤80%)

## O=C1CCC(N2Cc3cc(SC4CC5(CCN(C(c6ccccc6)c6ccccc6)CC5)C4)ccc3C2=O)C(=O)N1 (stereo not drawn) [GT-06920, 3-(5-((7-benzhydryl-7-azaspiro[3.5]nonan-2-yl)thio)-1-oxoisoindolin-2-yl)piperidine-2,6-dione]
[1]
  IC50: < 500 nM
IKZF1
  substrate protein remaining %: A (0%≤ substrate protein remaining % ≤80%)
Wee1
  substrate protein remaining %: A (0%≤ substrate protein remaining % ≤80%)

## O=C1CCC(N2Cc3cc(OC4CC5CN(C(=O)c6ccccc6-c6ccc(Cl)cc6)CC5C4)ccc3C2=O)C(=O)N1 (stereo not drawn) [GT-06954, 3-(5-((2-(4′-chloro-[1,1′-biphenyl]-2-carbonyl)octahydro-cyclopenta[c]pyrrol-5-yl)oxy)-1-oxoisoindolin-2-yl)piperidine-2,6-dione]
[1]
  IC50: < 500 nM
IKZF1
  substrate protein remaining %: A (0%≤ substrate protein remaining % ≤80%)
GSPT1
  substrate protein remaining %: A (0%≤ substrate protein remaining % ≤80%)
IKZF2
  substrate protein remaining %: A (0%≤ substrate protein remaining % ≤80%)
Wee1
  substrate protein remaining %: A (0%≤ substrate protein remaining % ≤80%)

## O=C1CCC(N2Cc3cc(OC4CN(Cc5ccc(-c6ccco6)s5)C4)ccc3C2=O)C(=O)N1 (stereo not drawn) [GT-06562, 3-(5-((1-((5-(furan-2-yl)thiophen-2-yl)methyl)azetidin-3-yl)oxy)-1-oxoisoindolin-2-yl)piperidine-2,6-dione]
[1]
  IC50: < 500 nM
IKZF1
  substrate protein remaining %: A (0%≤ substrate protein remaining % ≤80%)
GSPT1
  substrate protein remaining %: A (0%≤ substrate protein remaining % ≤80%)
Wee1
  substrate protein remaining %: A (0%≤ substrate protein remaining % ≤80%)

## O=C1CCC(N2Cc3cc(OC4CN(C(c5ccccc5)c5cccnc5)C4)ccc3C2=O)C(=O)N1 (stereo not drawn) [GT-06760, 3-(1-oxo-5-((1-(phenyl(pyridin-3-yl)methyl)azetidin-3-yl)oxy)isoindolin-2-yl)piperidine-2,6-dione]
[1]
  IC50: < 500 nM
IKZF1
  substrate protein remaining %: A (0%≤ substrate protein remaining % ≤80%)
IKZF2
  substrate protein remaining %: A (0%≤ substrate protein remaining % ≤80%)
Wee1
  substrate protein remaining %: A (0%≤ substrate protein remaining % ≤80%)

## O=C1CCC(N2Cc3cccc(SC4CNC4)c3C2=O)C(=O)N1 (stereo not drawn) [GT-06994, 3-(7-(azetidin-3-ylthio)-1-oxoisoindolin-2-yl)piperidine-2,6-dione]
IKZF1
  substrate protein remaining %: A (0%≤ substrate protein remaining % ≤80%)
IKZF2
  substrate protein remaining %: A (0%≤ substrate protein remaining % ≤80%)

## CC1(C)CCC(CN2CC(Sc3ccc4c(c3)CN(C3CCC(=O)NC3=O)C4=O)C2)=C(c2ccc(Cl)cc2)C1 (stereo not drawn) [GT-03464, 3-(5-((1-((4′-chloro-5,5-dimethyl-3,4,5,6-tetrahydro-[1,1′-biphenyl]-2-yl)methyl)azetidin-3-yl)thio)-1-oxoisoindolin-2-yl)piperidine-2,6-dione]
[1]
  IC50: < 500 nM
IKZF1
  substrate protein remaining %: A (0%≤ substrate protein remaining % ≤80%)
CK1α
  substrate protein remaining %: A (0%≤ substrate protein remaining % ≤80%)
GSPT1
  substrate protein remaining %: A (0%≤ substrate protein remaining % ≤80%)
Wee1
  substrate protein remaining %: A (0%≤ substrate protein remaining % ≤80%)
